According to ChEMBL document CHEMBL1201862, “PubChem BioAssay data set” (2004):
The source made the active and inactive calls.

Assays:
Cytochrome P450 3A4 = Cytochrome P450 3A4 (Homo sapiens, UniProt P08684); settings: Potency;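 note: confirmatory qHTS run detecting inhibitors and substrates of CYP3A4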
[1] = HEp-2 cell cytotoxicity, dose response, cytotoxicity control for RSV inhibitor project, HTS (AID 2410); assay type: functional; settings: human respiratory syncytial virus
cells [2] = assay: cells
Genome polyprotein = Genome polyprotein (dengue virus type 2, UniProt P29990); assay: Dengue-2 NS5 methyltransferase inhibitors, primary screen, biochemical, confirmation dose response (AID 588689); assay type: functional
[3] = target: T1, Polyadenylate-binding protein 1 (Homo sapiens, UniProt P11940); assay: PABP1 MLLE–PAM2 interaction inhibitors, dose response, miRNA deadenylation inhibitor project, biochemical, fluorescence polarization, Cy5-PAM2 peptide, secondary (AID 602260); assay type: functional; settings: read-out: IC50_Mean
[4] = target: T1, Polyadenylate-binding protein 1; assay: PABP1 MLLE–PAM2 binding inhibitor potency, dose response, biochemical, fluorescence polarization, FITC-PAM2 peptide (AID 602259); assay type: functional; settings: read-out: IC50_Mean
[5] = NIH-3T3 fibroblast cytotoxicity, dose response, cytotoxicity control, cell-based, fluorescence, Alamar Blue, secondary assay (AID 2327); assay type: functional;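 note: NIH-3T3 mouse fibroblasts cultured with fluconazole at 8 µg/mL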
[6] = THP-1 cell cytotoxicity, dose response, cytotoxicity control for non-replicating M. tuberculosis project (AID 489025); assay type: functional
cells [7] = assay type: functional
[8] = target: T2, RNA-binding protein pos-1 (Caenorhabditis elegans, UniProt G5EF15); assay: inhibitors of POS-1/mex-3 RNA binding, dose response, biochemical, fluorescence polarization (AID 1964);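 note: purified POS-1 fused to maltose binding protein made in E. coli; potency of compounds blocking POS-1 binding to fluorescent RNA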
T2 sequence (G5EF15 whole entry): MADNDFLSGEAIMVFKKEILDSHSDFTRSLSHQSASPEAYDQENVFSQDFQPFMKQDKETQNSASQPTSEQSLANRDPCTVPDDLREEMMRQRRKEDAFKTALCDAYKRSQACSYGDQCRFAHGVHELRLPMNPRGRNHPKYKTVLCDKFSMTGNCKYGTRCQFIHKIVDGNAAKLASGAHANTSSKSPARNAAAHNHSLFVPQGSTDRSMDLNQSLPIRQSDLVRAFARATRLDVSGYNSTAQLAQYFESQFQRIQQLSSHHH

[9] = target: T3, Zinc finger protein mex-5 (Caenorhabditis elegans, UniProt Q9XUB2); assay: MEX-5/TCR-2 RNA interaction inhibitors, dose response, biochemical, C. elegans, fluorescence polarization (AID 1960)
T3 sequence (Q9XUB2 whole entry): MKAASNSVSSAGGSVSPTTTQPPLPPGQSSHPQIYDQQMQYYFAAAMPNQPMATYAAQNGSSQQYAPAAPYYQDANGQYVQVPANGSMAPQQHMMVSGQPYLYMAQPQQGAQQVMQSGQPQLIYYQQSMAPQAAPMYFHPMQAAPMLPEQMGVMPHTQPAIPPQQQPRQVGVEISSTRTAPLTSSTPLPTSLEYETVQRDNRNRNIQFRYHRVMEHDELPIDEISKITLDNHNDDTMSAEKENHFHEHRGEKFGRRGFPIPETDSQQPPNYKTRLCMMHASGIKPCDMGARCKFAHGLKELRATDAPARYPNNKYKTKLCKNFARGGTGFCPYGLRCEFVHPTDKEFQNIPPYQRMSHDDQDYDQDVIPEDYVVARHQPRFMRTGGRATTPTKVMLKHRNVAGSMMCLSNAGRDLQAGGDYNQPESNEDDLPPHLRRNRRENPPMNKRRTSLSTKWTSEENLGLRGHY

Caspase-6 = target: T4, Caspase-6 (Homo sapiens, UniProt P55212); assay: human caspase-6 inhibitors, dose response, biochemical, VEID-R110 fluorescence, cherry-pick (AID 720632)
T4 sequence (P55212 whole entry): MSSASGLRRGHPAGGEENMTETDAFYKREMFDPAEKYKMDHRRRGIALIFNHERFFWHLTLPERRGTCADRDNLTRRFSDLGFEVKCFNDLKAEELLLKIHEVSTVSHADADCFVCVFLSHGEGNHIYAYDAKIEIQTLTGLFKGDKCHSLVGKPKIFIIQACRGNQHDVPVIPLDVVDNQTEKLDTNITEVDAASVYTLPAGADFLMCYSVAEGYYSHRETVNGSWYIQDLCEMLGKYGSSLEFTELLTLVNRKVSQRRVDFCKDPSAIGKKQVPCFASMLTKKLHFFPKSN

[10] = microbe, parasite or virus in culture; assay type: functional; settings: Mycobacterium tuberculosis
[11] = C. albicans growth with fluconazole, confirmation, fluorescence, retest (AID 2467); assay type: functional, cell-based
[12] = target: T5, High affinity choline transporter 1 (Homo sapiens, UniProt Q9GZV3); assay: CHT inhibitors, dose response, cell-based, 5-point CRC, membrane potential dye (AID 504840); assay type: functional
T5 sequence (Q9GZV3 whole entry): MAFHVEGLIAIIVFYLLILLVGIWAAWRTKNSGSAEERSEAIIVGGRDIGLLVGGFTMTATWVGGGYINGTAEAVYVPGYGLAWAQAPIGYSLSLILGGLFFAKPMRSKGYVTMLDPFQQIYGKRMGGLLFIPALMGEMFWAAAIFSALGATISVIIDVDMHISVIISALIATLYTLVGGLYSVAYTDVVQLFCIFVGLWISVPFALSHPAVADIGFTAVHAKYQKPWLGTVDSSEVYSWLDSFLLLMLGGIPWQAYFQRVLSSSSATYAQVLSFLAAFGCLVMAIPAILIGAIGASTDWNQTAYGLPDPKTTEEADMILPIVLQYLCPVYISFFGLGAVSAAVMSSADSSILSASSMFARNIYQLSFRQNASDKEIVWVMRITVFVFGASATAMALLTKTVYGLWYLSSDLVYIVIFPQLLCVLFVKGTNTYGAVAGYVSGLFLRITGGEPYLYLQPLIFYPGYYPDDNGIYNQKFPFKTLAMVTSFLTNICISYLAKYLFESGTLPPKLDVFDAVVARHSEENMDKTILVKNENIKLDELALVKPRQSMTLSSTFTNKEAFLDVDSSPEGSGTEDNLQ

[13] = Luminescence Cell-Based Dose Confirmation HTS to Identify Activators of 5'UTR Stem-Loop Driven Alpha-Synuclein mRNA Translation in H4 Neuroglioblastoma Cells. [Related pubchem assays: 1829 (Project Summary), 1814 (Primary HTS)]; assay type: functional
[14] = Luminescence Cell-Based Dose Response HTS to Identify Activators of Luciferase Translation or Activity in H4 […] Cells. [Related pubchem assays: 1829 (Project Summary), 1814 (Primary HTS)]; assay type: functional
H4 = assay: Luminescence Cell-Based Dose Response HTS to Identify Activators of 5'UTR Stem-Loop Driven Prion Protein mRNA Translation in H4 Neuroglioblastoma Cells. [Related pubchem assays: 1829 (Project Summary), 1814 (Primary HTS)]; assay type: functional; settings: Homo sapiens
[15] = inhibitors of intracellular T. cruzi replication, confirmation, NIH3T3 host cells, beta-gal luminescence (AID 2044); assay type: functional, cell-based;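 note: intracellular parasites grown in NIH/3T3 mouse fibroblasts as host cells; luminescent beta-galactosidase reporter signal from transgenic T. cruzi replicating inside host cells; inhibitors lower the luminescence signal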
[16] = cytotoxicity toward NIH3T3 fibroblasts, dose response, counter-screen, cell-based, ATP luminescence, mouse fibroblasts (AID 2010); assay type: functional;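 note: cells exposed to compound for about 90 hours before reading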
[17] = target: T6, Short transient receptor potential channel 4 (Mus musculus, UniProt Q9QUQ5); assay: mouse TRPC4 channel activators, dose response, cell-based, HEK293 TRPC4/mu-opioid, Fluo-4 calcium (AID 434937); assay type: functional
T6 sequence (Q9QUQ5 whole entry): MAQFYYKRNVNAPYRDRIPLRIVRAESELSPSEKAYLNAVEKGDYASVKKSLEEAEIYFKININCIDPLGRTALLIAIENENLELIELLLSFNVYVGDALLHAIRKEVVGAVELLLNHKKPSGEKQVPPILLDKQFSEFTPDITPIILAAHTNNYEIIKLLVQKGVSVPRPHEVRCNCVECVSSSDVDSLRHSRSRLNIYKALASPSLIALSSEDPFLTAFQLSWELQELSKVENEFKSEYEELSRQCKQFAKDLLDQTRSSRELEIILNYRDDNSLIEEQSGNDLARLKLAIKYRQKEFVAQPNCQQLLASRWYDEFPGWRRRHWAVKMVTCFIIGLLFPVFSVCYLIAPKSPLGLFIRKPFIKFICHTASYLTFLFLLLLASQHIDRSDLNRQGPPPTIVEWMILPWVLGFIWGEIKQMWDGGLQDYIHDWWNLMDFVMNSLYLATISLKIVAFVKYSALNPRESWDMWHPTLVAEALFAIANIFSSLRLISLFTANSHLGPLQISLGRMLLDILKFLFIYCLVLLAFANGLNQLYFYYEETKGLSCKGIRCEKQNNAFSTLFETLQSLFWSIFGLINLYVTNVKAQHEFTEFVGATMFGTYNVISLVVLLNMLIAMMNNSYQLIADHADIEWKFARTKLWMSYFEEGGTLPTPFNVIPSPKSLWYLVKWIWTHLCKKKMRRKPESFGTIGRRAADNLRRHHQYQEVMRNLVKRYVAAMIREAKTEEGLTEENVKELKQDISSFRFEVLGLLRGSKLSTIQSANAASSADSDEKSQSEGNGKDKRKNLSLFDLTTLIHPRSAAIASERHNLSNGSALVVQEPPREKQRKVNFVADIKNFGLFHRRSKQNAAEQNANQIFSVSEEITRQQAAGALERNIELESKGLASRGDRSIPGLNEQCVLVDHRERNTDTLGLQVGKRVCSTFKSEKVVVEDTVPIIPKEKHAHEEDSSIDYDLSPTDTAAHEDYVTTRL

Chain of Genome polyprotein (P29990 2492-3391 limits assumed): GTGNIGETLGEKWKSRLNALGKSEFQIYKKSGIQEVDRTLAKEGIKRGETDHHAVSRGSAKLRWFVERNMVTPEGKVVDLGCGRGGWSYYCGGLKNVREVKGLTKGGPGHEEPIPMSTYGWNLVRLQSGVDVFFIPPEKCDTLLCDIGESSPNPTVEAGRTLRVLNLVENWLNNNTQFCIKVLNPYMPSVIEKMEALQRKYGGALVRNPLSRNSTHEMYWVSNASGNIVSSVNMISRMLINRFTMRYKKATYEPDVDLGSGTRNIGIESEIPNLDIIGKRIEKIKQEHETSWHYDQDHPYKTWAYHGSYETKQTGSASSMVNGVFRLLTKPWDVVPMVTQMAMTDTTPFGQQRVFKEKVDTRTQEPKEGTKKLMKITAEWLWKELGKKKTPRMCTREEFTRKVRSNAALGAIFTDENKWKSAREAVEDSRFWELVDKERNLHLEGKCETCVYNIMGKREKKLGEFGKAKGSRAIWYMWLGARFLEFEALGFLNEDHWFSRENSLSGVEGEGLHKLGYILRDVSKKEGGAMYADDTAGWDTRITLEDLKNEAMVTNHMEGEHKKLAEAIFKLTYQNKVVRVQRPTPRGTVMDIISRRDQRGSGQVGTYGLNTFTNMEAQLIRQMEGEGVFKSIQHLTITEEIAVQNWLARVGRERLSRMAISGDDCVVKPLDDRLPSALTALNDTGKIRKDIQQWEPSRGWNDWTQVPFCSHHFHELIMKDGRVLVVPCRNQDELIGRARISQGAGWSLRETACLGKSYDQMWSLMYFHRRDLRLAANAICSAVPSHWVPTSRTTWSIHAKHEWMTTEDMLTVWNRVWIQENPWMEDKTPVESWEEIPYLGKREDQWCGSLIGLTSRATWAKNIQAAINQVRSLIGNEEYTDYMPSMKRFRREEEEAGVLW
T1 sequence (P11940 whole entry): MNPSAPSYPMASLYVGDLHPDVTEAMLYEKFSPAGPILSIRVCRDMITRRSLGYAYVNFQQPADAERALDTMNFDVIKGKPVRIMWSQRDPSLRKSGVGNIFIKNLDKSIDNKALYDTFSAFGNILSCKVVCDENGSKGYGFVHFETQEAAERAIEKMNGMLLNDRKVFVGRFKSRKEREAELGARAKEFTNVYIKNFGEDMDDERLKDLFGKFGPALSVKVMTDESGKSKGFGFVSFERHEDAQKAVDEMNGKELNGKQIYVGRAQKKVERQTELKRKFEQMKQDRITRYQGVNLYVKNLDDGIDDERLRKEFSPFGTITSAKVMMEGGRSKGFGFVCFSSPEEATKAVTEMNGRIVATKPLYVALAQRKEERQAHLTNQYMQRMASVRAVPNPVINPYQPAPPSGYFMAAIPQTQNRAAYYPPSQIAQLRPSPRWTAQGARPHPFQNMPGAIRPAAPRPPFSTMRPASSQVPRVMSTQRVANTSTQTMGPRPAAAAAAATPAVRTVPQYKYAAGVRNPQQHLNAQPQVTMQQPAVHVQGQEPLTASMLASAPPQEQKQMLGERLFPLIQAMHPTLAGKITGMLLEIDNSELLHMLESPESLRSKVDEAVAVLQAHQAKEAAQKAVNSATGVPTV
Chain of Cytochrome P450 3A4 (P08684 whole entry): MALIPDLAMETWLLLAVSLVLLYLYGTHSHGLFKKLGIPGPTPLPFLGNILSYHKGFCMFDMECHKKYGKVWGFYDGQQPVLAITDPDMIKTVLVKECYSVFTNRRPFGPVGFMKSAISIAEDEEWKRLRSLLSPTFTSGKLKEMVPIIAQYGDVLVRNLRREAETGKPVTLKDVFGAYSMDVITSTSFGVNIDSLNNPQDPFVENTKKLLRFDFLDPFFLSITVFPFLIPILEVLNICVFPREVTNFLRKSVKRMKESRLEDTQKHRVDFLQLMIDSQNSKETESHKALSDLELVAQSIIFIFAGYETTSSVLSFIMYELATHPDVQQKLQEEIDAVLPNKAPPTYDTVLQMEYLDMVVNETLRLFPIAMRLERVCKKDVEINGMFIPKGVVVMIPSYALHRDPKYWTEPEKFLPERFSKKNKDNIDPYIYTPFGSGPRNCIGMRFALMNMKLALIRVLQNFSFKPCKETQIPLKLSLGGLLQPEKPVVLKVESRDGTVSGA

Compound: Cc1nc(NC2CCCCC2)c2nc(-c3ccccc3)n(CCCN(C)C)c2n1
- AC50 (Cytochrome P450 3A4): 20 µM (inconclusive)

Compound: c1ccc(Cn2nnc3c(N4CCCCCC4)ncnc32)cc1
- CC50 [1]: 17 µM (active)
- IC50 (cells [2]): 49.5 µM (active)

Compound: Cc1cc[n+](-c2[n-]c(=O)sc2C=NNC(=O)c2ccncc2)cc1
- IC50 (Genome polyprotein): 83.8 µM (active)
- IC50 [3]: > 66 µM (inactive)
- IC50 [4]: 36 µM (inactive)

Compound: O=C1CCC/C(=N/Nc2ccc(Cl)cc2)C1
- EC50 [5]: > 150 µM (inactive)
- CC50 [6]: > 40 µM (active)
- IC50 (cells [7]): 16.9 µM (active)
- IC50 (Genome polyprotein): 93.3 µM (active)

Compound: Cc1ccc2c(c1)COc1c3ccc(C(=O)N[C@@H](C)CO)cc3nn1-2
- CC50 [1]: > 50 µM (active)
- IC50 (cells [2]): 41.5 µM (active)

Compound: COC(=O)CC1[C@@]2(C)C[C@]34OC5(C)OC6(C7CC(=O)OC(c8ccoc8)[C@]7(C)CCC6(O5)[C@]13C)C(OC(C)=O)[C@]4(OC(C)=O)C2OC(C)=O (stereo partly drawn)
- AC50 (Cytochrome P450 3A4): 20 µM (inconclusive)

Compound: O=C(O)CCC(=O)NCc1ccc2[nH]c3c(c2c1)CCCC3
- EC50 [8]: 82.1 µM (active)
- EC50 [9]: 112 µM (active)
- AC50 (Caspase-6): 25.6 µM (active)

Compound: CCN(CC)C1=N/C(=C\c2ccc(OC)cc2)C(=O)N1c1ccccc1
- CC50 [1]: 9.86 µM (active)
- IC50 (cells [2]): 4.49 µM (active)

Compound: Nc1ccc(-c2nc3cc(-c4nc5ccccc5o4)ccc3[nH]2)cc1
- CC50 [1]: 48.2 µM (active)
- CC50 [10]: > 40 µM (active)
- IC50 (cells [2]): 33.4 µM (active)

Compound: NC(=O)COc1ccc2c3c(c(=O)oc2c1)CCCCC3
- EC50 [5]: > 160 µM (inconclusive)
- EC50 [11]: > 38 µM (not active)
- IC50 (cells [2]): 42.2 µM (active)

Compound: Cc1ccc(C(=O)/C=C/C(=O)O)cc1
- IC50 [12]: 10.5 µM (active)
- IC50 (Genome polyprotein): > 100 µM (active)
- IC50 [3]: > 66 µM (inactive)
- IC50 [4]: > 66 µM (inactive)

Compound: COc1cc(/C=C2/C(=N)N3C(c4ccccc4)=CSC3=NC2=O)ccc1OCC(=O)O
- EC50 [13]: 19.6 µM (active)
- EC50 [14]: 12.7 µM (active)
- EC50 (H4): > 120 µM (not active)
- IC50 (Genome polyprotein): > 100 µM (active)

Compound: COc1cc2c(Cc3c4c5c(cc(OC)c(OC)c5c5c(OC)c(OC)ccc35)CCN4C)c3c4c(cc(OC)c(OC)c4c2cc1OC)CCN3C
- AC50 (Cytochrome P450 3A4): 3.16 µM (inconclusive)

Compound: Cn1c2ccccc2c(=O)c2c(=O)n(Cc3ccco3)c(-c3ccc(Cl)cc3Cl)nc21
- CC50 [1]: 15.5 µM (active)
- EC50 [15]: 0.978 µM (active)
- EC50 [16]: > 30 µM (not active)
- IC50 (cells [2]): 10.2 µM (active)

Compound: COc1cccc(C(=O)OC2CCCN(C)C2)c1 (stereo not drawn)
- EC50 [17]: 0.376 µM (active)
